Tested on: KB
Assay: Cytotoxicity against human KB cells
Type: functional, cell-based

With `C#CCCC[C@@H](O)[C@@H](C)[C@@H]1C/C=C(\C)C(=O)O[C@H](CC(C)C)C(=O)N[C@@H](C)C(=O)N(C)[C@H](Cc2ccccc2)C(=O)N(C)CC(=O)N[C@H]([C@H](C)CC)C(=O)N(C)[C@@H](C)C(=O)O1` [PALAU'AMIDE] the IC50 was 13 nM.
